Test results from US20220387414A1, “TREATING LIVER DISORDERS” (Terns Pharmaceuticals Inc., priority 2019, published 2022).
Values joined by “and” are separate entries in the source; they are usually repeats but may differ in a detail not shown here. Equal entries are not always repeated.

Tests used:
[1] = longer term studies; cited from earlier work
[2] = tested on: differentially expressed genes and pathways in liver; assay: RNAseq of liver after single oral dose; settings: mice liver, 6 hours; for number of differentially expressed genes modulated vs vehicle: fold change≥1.5, q-value<0.05; for number of global pathways enriched: p<0.05
Experimental: For RNAseq analysis, mRNA was extracted from total liver and sequenced using standard Illumina library preparation and sequencing protocols. Differentially expressed genes (DEG) were determined using RSEM and edgeR software packages and analyzed using Advaita Bio's iPathwayGuide software.

[3] = In vitro metabolic stability in cryopreserved hepatocytes (mouse); format: in vitro ADME; settings: 0.5×10^6 cells/mL, 37° C.
From the text: (§1) 283, no. 1, pp. 46-58 (1997).

[4] = Pharmacokinetics assay, IV and oral, monkey; format: in vivo, cynomolgus monkeys; settings: plasma; Cynomolgus Monkey, oral 5 mg/kg, IV 0.3 mg/kg
From the text: Results are shown in FIG. 1A (IV administration) and FIG. 1B (oral administration), and in Table 2. […] Smaller Vdss in monkeys is correlated with higher plasma protein binding.

[5] = In vitro metabolic stability in cryopreserved hepatocytes (rat); format: in vitro ADME; settings: Sprague-Dawley Rat hepatocytes, 0.5×10^6 cells/mL, 37° C.
From the text: as §1

[6] = In vitro metabolic stability in cryopreserved hepatocytes (dog); format: in vitro ADME; settings: Beagle Dog hepatocytes, 0.5×10^6 cells/mL, 37° C.
From the text: as §1

[7] = tested on: 7-alpha-hydroxy-4-cholesten-3-one (7α-C4); assay: Clinical 7-day study, serum 7α-C4 suppression; format: in vivo, human; settings: healthy subjects; for maximum suppression of serum 7α-C4 levels (reduction): Day 7, six hours after dosing
Experimental: (§2) Second Study. […] 10-14, 2019.
Serum levels of 7-alpha-hydroxy-4-cholesten-3-one (7α-C4) in the subjects were periodically measured. FIGS. 16A and 16B show changes of mean serum levels of 7α-C4 from the pre-dose baseline in different dosing groups on Day 1 and Day 7, respectively. […] On Day 7, maximum suppression of serum 7α-C4 levels was observed six hours after dosing corresponding to a reduction of 74%, 82%, and 91% in the 25, 75, and 150 mg dosing groups, respectively.

[8] = tested on: FXR-regulated gene expression in liver and ileum; assay: RT-qPCR of FXR-regulated gene expression in liver and ileum after single oral dose; format: in vivo; settings: mice, single oral dose 10 mg/kg, 6 hours after dose
From the text: For RT-qPCR, gene-specific primers were used to quantitate FXR-regulated gene expression in liver and ileum using the 2-ddCT method. Results are shown in FIG. 6 (data presented as mean±SEM; **** indicates p<0.0001 and * indicates p<0.05 versus vehicle, with statistics determined by one-way ANOVA followed by Tukey).

[9] = Tissue distribution of radiolabeled (14C) Compound I after oral dose; format: in vivo; settings: Long-Evans rats, oral 5 mg/kg (100 μCi/kg), up to 168 hours
[10] = In vitro metabolic stability in cryopreserved hepatocytes (monkey); format: in vitro ADME; settings: Cynomolgus Monkey hepatocytes, 0.5×10^6 cells/mL, 37° C.
From the text: as §1

[11] = In vitro metabolic stability in cryopreserved hepatocytes (human); format: in vitro ADME; settings: 0.5×10^6 cells/mL, 37° C.
From the text: as §1

[12] = Clinical 7-day study, serum LDL; format: in vivo, human; settings: healthy subjects, 25, 75, or 150 mg QD for 7 days
From the text: (§3) Serum levels of Compound I in the subjects were periodically measured.
Serum levels of low-density lipoprotein (LDL) in the subjects were periodically measured.

[13] = tested on: NASH induced by a high fat diet in combination with CCl4; assay: Mouse model of NASH (high fat diet in combination with CCl4); format: in vivo, C57/BL6J mice; settings: 28 days
Experimental: Hematoxylin & Eosin (H&E) and Sirius Red histological staining of liver tissue was used to quantitate NAFLD activity score (NAS), steatosis, ballooning, inflammation and fibrosis.
NAS is calculated based upon liver steatosis, inflammation, and ballooning and was determined by analysis of liver tissue histology using H&E stain. Specifically, inflammation score was calculated based upon H&E staining: Score 0, none; 1, <2 foci per 200X field; 2, 2-4 foci per 200X field; 3, >4 foci per 200X field. […] Hepatocellular ballooning is a form of liver cell injury associated with cell swelling and is also measured by H&E stained liver sections. The ballooning score is calculated as follows: 0-no hepatocyte ballooning; 1-few ballooning hepatocytes; 2-many hepatocytes with prominent ballooning.
Liver fibrosis was quantified by histological analysis of the percentage of Sirius Red-positive liver sections.

[14] = Clinical 7-day study, safety and pruritus; format: in vivo, human; settings: healthy volunteers
Experimental: as §2
Safety was assessed during dosing and for 10 (±1) days after dosing.

[15] = tested on: 7-alpha-hydroxy-4-cholesten-3-one (7α-C4); assay: PD profile (7α-C4 reduction) after oral dosing in monkeys; format: in vivo; settings: cynomolgus monkeys, oral 1 mg/kg for 7 consecutive days
Experimental: (§4) The pharmacodynamics were measured as a function of 7-alpha-hydroxy-4-cholesten-3-one (7α-C4) reduction (FIG. 4), as quantified by LC-MS/MS. Pharmacokinetics data is presented in Table 3, and were determined by non-compartmental analysis.

[16] = Clinical 7-day study, serum exposure of Compound I; format: in vivo, human; settings: healthy subjects, each 24-hour dosing period, all dosed groups
From the text: as §2, §3

FGF-19 = assay: Clinical 7-day study, serum FGF-19; format: in vivo, human; settings: healthy subjects, four hours after dosing on Day 7; dosing groups not assigned in the text
From the text: as §3
Serum levels of FGF-19 in the subjects were periodically measured. FIGS. 17A and 17B show changes of mean serum levels of FGF-19 from the pre-dose baseline in different dosing groups on Day 1 and Day 7, respectively.

[17] = tested on: FXR-regulated, inflammatory and fibrosis gene expression in the liver; assay: Liver gene expression in NASH mouse model (RT-qPCR, RNA-seq); format: in vivo, C57/BL6J mice; settings: 10, 30, or 100 mg/kg daily oral, 28 days
[18] = PK profile after oral dosing in monkeys; format: in vivo; settings: cynomolgus monkeys, oral 1 mg/kg for 7 consecutive days
Experimental: as §4

[19] = 10, 30, and 100 mg/kg daily oral
[20] = 10, 30, or 100 mg/kg daily oral

SMILES: O=C(O)c1cc(F)c2nc(N3[C@@H]4CC[C@H]3C[C@@H](OCc3c(-c5ccccc5OC(F)(F)F)noc3C3CC3)C4)sc2c1 [tropifexor]
- pruritus [1]: known to result in pruritus

SMILES: O=C(O)c1ccnc(N2CC(O)(c3ccc(OCc4c(-c5c(Cl)cccc5Cl)noc4C4CC4)cc3Cl)C2)c1 [cilofexor]
- pruritus [1]: known to result in pruritus

SMILES: CC[C@H]1[C@@H](O)[C@@H]2[C@H](CC[C@]3(C)[C@@H]([C@H](C)CCC(=O)O)CC[C@@H]23)[C@@]2(C)CC[C@@H](O)C[C@@H]12 [OCA, obeticholic acid, reference compound]
- pruritus [1]: known to result in pruritus
- number of differentially expressed genes modulated vs vehicle ([2]; single oral 30 mg/kg): 44 genes
- number of global pathways enriched ([2]; single oral 30 mg/kg): 6 pathways

SMILES: Cn1cc(C(=O)O)c2ccc(N3CCC(OCc4c(-c5c(Cl)cccc5Cl)noc4C4CC4)CC3)cc21 [Compound I, 6-{4-[5-cyclopropyl-3-(2,6-dichloro-phenyl)-isoxazol-4-ylmethoxy]-piperidin-1-yl}-1-methyl-1H-indole-3-carboxylic acid]
- half-life at 1 µM [3]: 0.727 ± 0.0472 h
- bioavailability [4]: 18%
- half-life at 1 µM [5]: 2.18 ± 0.0685 h
- half-life at 1 µM [6]: 2.1 ± 0.258 h
- maximum suppression of serum 7α-C4 levels (reduction) ([7]; 25 mg QD): 74%
- maximum suppression of serum 7α-C4 levels (reduction) ([7]; 75 mg QD): 82%
- maximum suppression of serum 7α-C4 levels (reduction) ([7]; 150 mg QD): 91%
- suppression of serum 7α-C4 levels after a single dose ([7]; Day 1, all dosed groups (25, 75, 150 mg)): partial suppression
- induction of FXR-specific genes (liver SHP1, liver OSTb, ileum SHP1, ileum FGF15) [8]: preferentially induces FXR-specific genes in the liver
- tissues with the most radioactive material [9]: Liver, small intestine, and cecum
- half-life at 1 µM [10]: 1.06 ± 0.013 h
- number of differentially expressed genes modulated vs vehicle ([2]; single oral 10 mg/kg): 500 genes
- number of global pathways enriched ([2]; single oral 10 mg/kg): 32 pathways
- half-life at 1 µM [11]: 1.4 ± 0.108 h
- serum LDL changes above baseline [12]: minimal
- ballooning score compared to untreated NASH mice [13, 19]: significantly reduced
- inflammation score compared to untreated NASH mice [13, 19]: significantly reduced
- steatosis score compared to untreated NASH mice [13, 19]: significantly reduced
- NAFLD Activity Score (NAS) compared to untreated NASH mice [13, 20]: significantly lower
- liver fibrosis (Sirius Red-positive area) compared to untreated NASH control [13, 20]: statistically significant reduced fibrosis
- reports of pruritus ([14]; all doses (25, 75, 150 mg QD for 7 days)): no reports of pruritus
- safety and tolerability ([14]; all doses, during dosing and for 10 (±1) days after): safe and well tolerated
- suppression of the pharmacodynamics biomarker 7α-C4 [15]: sustained suppression
- mean serum levels of Compound I versus its EC50 [16]: generally did not exceed the EC50
- maximum increases from baseline in serum FGF 19 levels (FGF-19): 718% and 486% and 454%
- collagen, type 1, alpha 1 expression in the liver compared to control NASH mice [17]: decreased
- plasma exposure on day 1 and day 7 [18]: comparable
